Laboratory results as given in US20090202494A1, “Combined use of glp-1 agonists and gastrin for regulating blood glucose levels” (priority 2004, published 2009).

Experiments:
Assay type in all cases: in vivo, mouse
[1] = tested on: acutely-diabetic NOD mice; test: Example 1: fasting blood glucose in acutely-diabetic NOD mice treated with GLP-1 or GLP-1 + Gastrin
Procedure: Female NOD mice ages 12-16 weeks were treated for 18 days only with vehicle (PBS), GLP-1 (300 μg/kg/day), or GLP-1 (300 μg/kg/day)+Gastrin (3 μg/kg/day), by injection intraperitoneally twice daily within 2 days after diabetes onset. Onset of diabetes was determined by fasting blood glucose (FBG) levels (9-15 mM compared with normal FBG <6.0 mM). The mice were monitored daily for urine glucose and weekly for FBG levels.
At the start of the treatments, fasting blood glucose levels ranged between 11-14 mM. After 18 days of treatments, FBG was 24±1 mM in vehicle-treated mice, 13±2 mM in mice treated with GLP-1 alone, and 6±1 mM in mice treated with the combination of GLP-1 and Gastrin (mean±SE, n=4 mice in treated groups; n=6 mice in the control group).
After 18 days of treatment therapy was stopped and FBG was monitored weekly for additional six weeks. […] Comparatively, the untreated group of animals had to be sacrificed due to the severity of the disease after five weeks.

[2] = tested on: acutely-diabetic NOD mice; test: Example 2: fasting blood glucose in acutely-diabetic NOD mice, during treatment and 6 weeks after
Procedure: (§1) The mice were monitored daily for urine glucose levels and weekly for FBG levels during the treatment and for an additional 6 weeks after the treatment was stopped. The pancreatic insulin levels were determined in each group as well as histological analysis of the pancreatic tissue was performed. Pancreatic tissues were fixed and stained for insulin producing cells. The beta cell mass was determined by morphometric analysis.

[3] = tested on: acutely-diabetic NOD mice; test: Example 2: pancreatic insulin levels in NOD mice
Procedure: as §1

GLP-1(7-36) Amide, Human
FBG course during six weeks after treatment was stopped ([1]; FBG monitored weekly for six weeks post treatment): transient improvement in FBG levels up to 2 weeks after the treatment was stopped | fasting blood glucose (FBG) after 18 days of treatments ([1]; female NOD mice, i.p. twice daily for 18 days, GLP-1 300 μg/kg/day, Gastrin 3 μg/kg/day, mean±SE, n=4, normal FBG <6.0 mM): 13 ± 2 mM | fasting blood glucose after 18 days of daily treatments ([2]; NOD mice, i.p. twice daily, combination printed as 30 μg/kg/day of GLP-1 and 3 μg/kg/day of G1): 12.5 ± 2.2 mM | maximal blood glucose levels reached post treatment ([2]; after treatments stopped, animals suffering from diabetic complications): over 30 mM | effect on pancreatic insulin levels (in words) [3]: modest effect only
